Reference: patent US9884863B2, “STAT3 inhibitor” (Board of Regents, The University of Texas System, priority 2013, dated 2018)
Read-outs that look alike come from different tables or passages of the source.

Columns and labels:
[1] = tested on: STAT family, STAT3-dependent genes and JAKs in MDA-MB-231 cells; test: Western blot analysis, MDA-MB-231 cells; type: cell-based, human
Method: Blocking STAT3 signaling in many different tumor cells leads to induce growth arrest and apoptosis (Turkson, J. et al., 2000; Bromberg, J., 2002; Zhang, X. et al., 2012).
Western Blot Analysis. Protein levels were determined by Western blot using the previously described methods (Shen, Q. et al., 2008). Total cell lysates were prepared from MDA-MB-231 cells. Protein concentrations were measured using the BCA Protein Assay Reagent (Pierce, Rockford, Ill., USA). Equal amounts of total cellular protein extract (40 μg) were resuspended in denaturing sample loading buffer (0.5 M Tris-HCl, pH 6.8, 10% SDS, 0.1% bromophenol blue, and 20% glycerol), separated by electrophoresis on a 10% polyacrylamide SDS-PAGE gel and then electrophoretically transferred to a nitrocellulose membrane (Thermo Scientific, Ill., USA) at 100 Volts for 1 h at 4° C. The membrane was then incubated in a blocking solution containing 5% non-fat milk and 1% Tween 20 in TBS for 1 h. The membrane was then incubated with antibodies specific for: phospho-STAT3-pY705 (1:3000, Epitomics, #2236-1), STAT3 (1:2000, Cell Signaling, #4904), Caspase-3-cleaved (1:2000, Epitomics, #1476-1), Cyclin D1 (1:10000, Epitomics, #2261-1) and β-actin (1:10000, Sigma, clone AC-15). An anti-rabbit or anti-mouse secondary antibody (Amersham, Piscataway, N.J.) was used at 1:4000 dilution. The Western blotted bands were visualized using ECL procedure according to the manufacturer's instructions (Amersham).

[2] = tested on: MDA-MB-231 and MDA-MB-468 cells; test: Colony formation assay; type: cell-based, human; settings: 15 days, starting at 0.625 μM
Method: Colony Formation Assay: MDA-MB-468 and MDA-MB-231 cells were seeded in 6-well plates with a density of 800-3000 cells/well, respectively. […] The culture media with the compounds were changed every 72 h. After two weeks, the wells were washed twice with PBS buffer and 2 mL of 0.01% crystal violet staining buffer was added and incubated for 10 min. The wells were then washed with PBS for 5 min for three times, and allowed to dry. Photographs were then taken and the density of the entire culture well area was digitally measured using the GelCount™ instrument (Oxford Optronix, UK). Experiments were performed in triplicate and the density data were analyzed with one-way ANOVA using GraphPad Prizm 6 software. Error bars represent standard deviation.

[3] = tested on: MDA-MB-231 xenograft tumors; test: MDA-MB-231 xenograft tumor growth in nude mice; type: in vivo; settings: oral gavage daily for 14 days
[4] = tested on: pSTAT3 nuclear translocation in MDA-MB-231 cells; test: IL-6 induction of STAT3 phosphorylation and nuclear translocation; type: cell-based, human; settings: treatment for 6 h, IL-6 1 h
Method: IL-6 Induction of STAT3 Phosphorylation and Nuclear Translocation: A total of 5×10^4 MDA-MB-231 cells were seeded into each well of the chamber slides (#154526, Thermo, N.Y.) and cultured overnight. Cells were starved up to 24 h prior to the designated drug treatment. […] After stimulation with IL-6 (50 ng/mL) for 1 h, the culture media were aspirated and followed by DPBS (Gibco, Auckland, NZ) wash twice. Then cells were fixed with 4% paraformaldehyde for 10 min, followed by permeabilization using 100% methanol, blocking buffer for 1 h at room temperature, and incubation with primary antibodies at 4° C. overnight. After incubation with secondary antibody for 1 h, slides were stained with DAPI (Invitrogen, CA) for 5 min, and then anti-fade mounting media added to each chamber. Cells were then analyzed under immunofluorescence microscope with laser-scanning confocal imaging system (Nikon TS100F).

[5] = tested on: STAT family, STAT3-dependent genes and JAKs in MDA-MB-468 cells; test: Western blot analysis, MDA-MB-468 cells; type: cell-based, human
[6] = tested on: STAT3 and pSTAT3 in MDA-MB-453 and BT474 cells; test: Transient transfection of STAT3 expression vector and Western blot; type: cell-based, human; settings: 10 μM, 12 h
Method: Transient Transfection of STAT3 Expression Vector: Transient transfection was conducted using Fugene HD reagent (Invitrogen, N.Y., USA) per manufacturer's instructions. Briefly, MDA-MB-453 and BT474 cells were seeded in 100 mm^2 culture dishes and incubated overnight. Culture medium was changed to FBS free media 1 h prior to transfection, and 15 μg STAT3C over-expression vector (#24983, Addgene, Mass., USA), 45 μL Fugene HD together with 879 μL opti-MEM (Invitrogen, N.Y.) was added into each dish. Eight hours after transfection, the media was removed and changed to regular media containing 10% FBS. […] After 12 h treatment, total cell lysates were collected and proceeded to Western blot analysis.

[7] = tested on: STAT3 and pSTAT3 in MDA-MB-231 xenograft tumors; test: IHC and Western blot of xenograft tumors; type: in vivo, mice
Text: Immunohistochemistry (IHC): Paraffin blocks of the collected tissue were sectioned into 4 μm thickness and stained with H&E as a reference. All slides were subjected to phospho-STAT3 (Y705) IHC with ABC staining method. Rabbit or mouse IgG ABC kit was purchased from Vector Laboratories (Burlingame, Calif., USA) and ABC staining reagents were purchased from Sigma Aldrich (Louis, Mo., USA). PBS was used instead of primary antibody as a negative control.

MDA-MB-231 cells = test: Apoptosis assay (annexin V, flow cytometry); type: cell-based, human; settings: MDA-MB-231
Method: Cell Cycle Assay and Apoptosis Assay: Cell cycle and apoptosis kits (#MCH100106 and #MCH100105, Millipore, Mass.) were used. […] 24 and 48 h after drug treatment, both adherent and floating cells were collected, washed once with PBS and fixed in cold ethanol for at least 4 h before cell cycle analysis. The fixed cells were then washed twice with PBS and resuspended in 200 μL cell cycle detection reagent, incubated for 30 minutes in dark at room temperature. Cell cycle distribution was measured by the Muse Cell Analyzer with Muse™ Cell Cycle. Similarly, MDA-MB-231 cells with the same treatments were prepared for apoptosis assay. After washing with PBS, resuspended cells were incubated with 100 μL PBS containing 1% BSA and 100 μL Annexin V and dead cell detection reagent in dark for 20 minutes at room temperature. Apoptosis was measured immediately using the Muse Cell Analyzer with the Muse™ Apoptosis Program.

[8] = type: in vivo; settings: mouse, in vivo, 150 mg/kg
Method: Female nude mice at 4 to 6 wk of age were obtained from MDACC ERO facility. The mice were maintained in a barrier unit with 12 hours light-dark switch room and all materials were autoclaved. Freshly harvested MDA-MB-231 cells (2.5×10^6 cells per mouse, resuspended in 100 μl PBS) were injected into the 3rd mammary fat pad of the mice, and then mice were randomly assigned into control and treatment groups (≧6 mice per group). Treatment started when the xenograft mammary tumors reaches a volume of 200 mm^3. […] Mice were monitored daily for general health conditions (body weight, fur coat condition and posture) and toxicity (hair loss, skin rash, abdominal distension). […] Tumor volume was calculated as V=W^2×L/2, where L=longer diameter (mm) and W=width of short diameter (mm). […]
Female nude mice were obtained from MDACC and were used for orthotopic tumor studies at 4 to 6 weeks of age. […] Body weights and tumors volume were measured daily and tumor volume was calculated according to the formula V=0.5×L×W^2, where L=length (mm) and W=width (mm).
Twenty-two female nude mice (8 wks of age) were obtained from MDACC ERC Center. […] Body weights and tumors volume were measured daily and tumor volume calculated using the formula V=0.5×L×W^2, where L=length (mm) and W=width (mm) of xenograft tumors. Signs of toxicity were recorded individually. […]

MDA-MB-231 = test: MTS cell proliferation assay, MDA-MB-231; type: cell-based, human; settings: Homo sapiens, MDA-MB-231, 72 h
Procedure, shortened: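 Cells are exposed to DMSO or STAT3 inhibitors at 0.01-100 μM for 72 h, or at 1, 5 and 10 μM. Proliferation is read by MTS absorbance at 550 or 560 nm after 1 h at 37 °C. Each concentration is run in quadruplicate wells.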

MCF-7 = test: MTS cell proliferation assay, MCF-7; type: cell-based, human; settings: Homo sapiens, MCF7, 72 h
Procedure, shortened: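 MCF-7 human breast cancer cells were exposed to test compounds at a range of concentrations, then proliferation was measured with the MTS reagent from Promega's CellTiter 96 AQueous Non-Radioactive Cell Proliferation Assay kit. After 1 hr at 37° C., OD at 550 nm was read on a 96-well iMark Microplate Absorbance Reader, with quadruplicate wells per concentration.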

[9] = tested on: STAT3 promoter activity in MDA-MB-231 cells; test: Transient transfection and dual luciferase reporter assay (pSTAT3-Luc); type: cell-based, human; settings: Homo sapiens, MDA-MB-231, read-out: inhibition of STAT3 promoter activity at 5 μM; 24 h, compared with control; Example 4 numbering
Method: MDA-MB-231 cells were pre-treated with niclosamide or 11 at different concentrations for 24 h. The STAT3 promoter activity in MDA-MB-231 cells was determined after transient transfecting with pSTAT3-Luc vector.
Transient Transfection and Dual Luciferase Reporter Assays. MBA-MB-231 cells were seeded in 24-well plate at a density of 5×10^4 cells/well in RPMI-1640 medium containing 10% FBS and 1% penicillin-streptomycin. Transient transfections were performed 4 h after plating, using the method described previously (Rees, D. C. et al., 2004; Shen, Q. et al., 2008). Total amount of DNA for transfections was 0.5 μg/well, including pSTAT3-Luc (95%, obtained from Panomics, Cat# LR0077) and internal control vector renilla (5%, from Promega, Madison, Wis., USA). 5 h after transfection, the cells were treated with compound […] for 24 h, then reporter activity was evaluated using dual luciferase reporter assay kit (Promega, Madison, Wis., USA) on an Omega™ Microplate Luminometer (BMG LABTECH Inc., NC, USA). Relative luciferase units were the ratio of the absolute activity of firefly luciferase to that of renilla luciferase. Experiments were conducted with triplicates and results are representatives of at least 3 independent experiments.

AsPC1 = test: MTS cell proliferation assay, AsPC1; type: cell-based, human; settings: Homo sapiens, ASPC1, 72 h
Method: (§1) Cancer cells (breast cancer cell lines MCF-7, MDA-MB-361, SKBR3 and MDA-MB-231, pancreatic cancer cell lines AsPC-1. BxPC3 and Panc-1) were seeded in 96-well plates at a density of 1000-2000 cells/well and treated with DMSO, 0.01, 0.1, 1, 5, 10, and […] of STAT3 individual inhibitors for 72 hrs. Proliferation was measured by treating cells with the 3-(4,5-dimethylthiazol-2-yl)-5-(3-carboxymethoxyphenyl)-2-(4-sulfophenyl)-2H-tetrazolium) (MTS) in a CellTiter 96t AQueous Non-Radioactive Cell Proliferation Assay kit from Promega, Madison, Wis., USA). Absorbance of all wells was determined by measuring OD at 550 nm after 1 hr incubation at 37° C. on a 96-well iMark™ Microplate Absorbance Reader (BioRad, Hercules, Calif.). Each individual compound was tested in quadruplicate wells for each concentration, and the results were reported as mean absorption±s.e.
(§2) In Vitro Determination of Effects of Synthesized Compounds on Cancer Cell Proliferation. Cancer cells (breast cancer cell lines MCF-7 and MDA-MB-231, pancreatic cancer cell lines AsPC-1 and Panc-1) were seeded in 96-well plates at a density of 2×10^3 cells/well and treated with DMSO, 0.01, 0.1, 1, 5, 10, and 100 μM of individual STAT3 inhibitors for 72 h. Proliferation was measured by treating cells with the 3-(4,5-dimethylthiazol-2-yl)-5-(3-carboxymethoxyphenyl)-2-(4-sulfophenyl)-2H-tetrazolium) (MTS) in a CellTiter 96t Aqueous Non-Radioactive Cell Proliferation Assay kit (Promega, Madison, Wis., USA). Absorbance of all wells was determined by measuring OD at 550 nm after 1 h incubation at 37° C. on a 96-well iMark™ Microplate Absorbance Reader (BioRad, Hercules, Calif.). Each individual compound was tested in quadruplicate wells for each concentration.

Panc-1 = test: MTS cell proliferation assay, Panc-1; type: cell-based, human; settings: Homo sapiens, PANC-1, 72 h
Method: as §1, §2

STAT3 = STAT3 (Homo sapiens, UniProt P40763); settings: Schust et al. 2006; read-out: IC50, binding to STAT3; cited from earlier work
Chain of STAT3 (P40763 whole entry, species assumed): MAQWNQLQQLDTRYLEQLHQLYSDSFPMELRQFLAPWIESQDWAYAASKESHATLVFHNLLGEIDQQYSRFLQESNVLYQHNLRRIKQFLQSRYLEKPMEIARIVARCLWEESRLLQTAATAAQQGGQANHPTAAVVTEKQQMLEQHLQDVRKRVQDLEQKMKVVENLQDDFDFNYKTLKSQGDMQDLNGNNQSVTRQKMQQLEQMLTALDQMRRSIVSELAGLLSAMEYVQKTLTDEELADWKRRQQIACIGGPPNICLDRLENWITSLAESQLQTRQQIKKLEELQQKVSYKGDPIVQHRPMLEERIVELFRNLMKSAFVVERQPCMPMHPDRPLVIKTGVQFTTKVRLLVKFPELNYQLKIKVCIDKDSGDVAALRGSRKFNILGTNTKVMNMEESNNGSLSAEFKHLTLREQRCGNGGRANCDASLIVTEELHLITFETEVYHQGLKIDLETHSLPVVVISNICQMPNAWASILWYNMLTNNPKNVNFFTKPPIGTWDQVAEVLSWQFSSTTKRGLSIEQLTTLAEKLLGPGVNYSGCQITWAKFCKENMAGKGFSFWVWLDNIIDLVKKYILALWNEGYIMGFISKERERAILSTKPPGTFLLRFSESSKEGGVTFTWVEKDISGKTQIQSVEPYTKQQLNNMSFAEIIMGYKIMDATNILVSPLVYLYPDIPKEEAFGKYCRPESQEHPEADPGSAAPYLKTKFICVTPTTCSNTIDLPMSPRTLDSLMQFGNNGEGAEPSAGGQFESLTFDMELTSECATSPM

## NCCOc1ccc(Cl)cc1C(=O)Nc1ccc([N+](=O)[O-])cc1Cl [HJC0152]
[1]; MDA-MB-231
  JAK1 or pJAK1 (Y1022): no changes
  Mcl-1: decrease starting from 6 h
  STAT1 and active STAT1 at Y701 or S727: no significant changes
  STAT2, STAT4 and STAT6: minimal changes
  cleaved caspase 3: induced at 12 h
  pSTAT3 at S727 residue: continuous inhibition to 24 h
[1]; MDA-MB-231, 5 and 10 μM
  STAT5: transient decrease at 6 h
[1]; MDA-MB-231, 12 and 24 h, 5 and 10 μM
  pSTAT5: moderate decrease
[1]; MDA-MB-231, 6 h, recovered at 24 h
  pSTAT3 at Y705 residue: significantly decreased
[1]; MDA-MB-231, 24 h
  Bcl-xl protein and cyclin D1: not altered
[1]; MDA-MB-231, from 6 h, 5 μM and 10 μM
  JAK2 and pJAK2 (Y1007 & Y1008): apparent down-regulation
[2]
  colony formation: significant suppression of colony formation
[3]
  reduction in tumor growth, 25 mg/kg: approximately 80%
[4]
  IL-6 induced nuclear translocation of pSTAT3: blocked
[5]; MDA-MB-468
  JAK3: minimal alterations
  STAT1: minimal changes
  cleaved PARP1: induced from 6 h
[5]; MDA-MB-468, 12 h, recovered at 24 h
  JAK2 and pJAK2: transient down-regulation
[5]; MDA-MB-468, 12 h and 24 h
  JAK1 protein: decreased level
[5]; MDA-MB-468, from 6 h
  Bcl-2 and cyclin D1: decreased level
[5]; MDA-MB-468, from 6 h, 10 μM
  pSTAT1 at Y701 and S727: down-regulation
[5]; MDA-MB-468, from 12 h, 5 μM
  STAT5 and pSTAT5 (Y694): decreased level
[5]; MDA-MB-468, starting at 3 h
  STAT3 and pSTAT3: down-regulation
[6]
  STAT3 and pSTAT3 levels after forced expression of STAT3: significantly decreased
[7]; 25 mg/kg oral
  pSTAT3 (Y705) level in xenograft tumors, IHC: significant effect on reducing pSTAT3 level
[7]; oral gavage 14 days
  STAT3 and pSTAT3 (Y705 and S727) in tumor lysates, Western blot: decreased
MDA-MB-231 cells
  apoptosis at 1 μM: 8%
  apoptosis at 10 μM: 23%

## O=C(Nc1ccc2c(c1)S(=O)(=O)C=C2)c1cc(-c2ccccc2)nc2ccccc12 [Compound 5]
[8]
  signs of toxicity at 150 mg/kg: did not show significant signs of toxicity
MDA-MB-231; read-out: IC50 MDA-MB-231 (Table 4)
  IC50: 0.29 µM
MDA-MB-231; read-out: IC50 MDA-MB-231 (Table 5)
  IC50: 0.29 µM
MCF-7; read-out: IC50 MCF-7 (Table 4)
  IC50: 0.1 µM
MCF-7; read-out: IC50 MCF-7 (Table 5)
  IC50: 0.1 µM
[9]
  inhibition at 5 µM: ~65%
AsPC1; read-out: IC50 AsPC1 (Table 4)
  IC50: 1.25 µM
AsPC1; read-out: IC50 AsPC1 (Table 5)
  IC50: 1.25 µM
Panc-1; read-out: IC50 Panc-1 (Table 4)
  IC50: 0.26 µM
Panc-1; read-out: IC50 Panc-1 (Table 5)
  IC50: 0.26 µM

## O=[N+]([O-])c1ccc2c(c1)S(=O)(=O)C=C2 [Stattic]
STAT3
  IC50: 5.1 µM
